System: MOLM-13 cells
Assay: MOLM-13 cell viability assay (CellTiter-Glo)
Format: cell-based
Details: Homo sapiens, MOLM-13, 72 h, 3 days, concentration of 1 μM, read-out: Antiproliferative Activity (inhibition, MOLM-13 cell viability)
Method: MOLM-13 cells were cultured in RPMI 1640 media supplemented with 10% fetal bovine serum, streptomycin, and penicillin. The cells were plated in white walled 96-well plates at 2,500 cells/well. The cells were incubated in DMSO (control) or an indicated compound for 3 days at 37° C. and 5% CO2. Following the incubation period, 100 μL of CELLTITER-GLO® (CTG) reagent was added to each well. Following a 10 minutes incubation with shaking, luminescence was measured using an ENVISION® Multimode plate reader.

Row | SMILES | cytotoxicity at 1 µM [%]
1 | O=C1CCC(N2Cc3c(NC(=O)C(=O)c4ccc(C5(C(F)(F)F)CC5)cc4)cccc3C2=O)C(=O)N1 (stereo not drawn) [Compound I-57, N-(2-(2,6-dioxopiperidin-3-yl)-1-oxoisoindolin-4-yl)-2-oxo-2-(4-(1-(trifluoromethyl)cyclopropyl)phenyl)acetamide] | < 25
2 | O=C1CCC(N2C(=O)c3cccc(CNC(=O)C(=O)c4ccc(C5(C(F)(F)F)CC5)cc4)c3C2=O)C(=O)N1 (stereo not drawn) [Compound I-58, N-((2-(2,6-dioxopiperidin-3-yl)-1,3-dioxoisoindolin-4-yl)methyl)-2-oxo-2-(4-(1-(trifluoromethyl)cyclopropyl)phenyl)acetamide] | 50 to 80
3 | CC(C)c1ccc(C(=O)C(=O)NCc2cccc3c2CN(C2CCC(=O)NC2=O)C3=O)s1 (stereo not drawn) [Compound I-59, N-((2-(2,6-dioxopiperidin-3-yl)-1-oxoisoindolin-4-yl)methyl)-2-(5-isopropylthiophen-2-yl)-2-oxoacetamide] | 25 to 50
4 | Cc1c(CNC(=O)C(=O)c2ccc(C3(C(F)(F)F)CC3)cc2)ccc2c1CN(C1CCC(=O)NC1=O)C2=O (stereo not drawn) [Compound I-60, N-((2-(2,6-dioxopiperidin-3-yl)-4-methyl-1-oxoisoindolin-5-yl)methyl)-2-oxo-2-(4-(1-(trifluoromethyl)cyclopropyl)phenyl)acetamide] | 50 to 80
5 | CC(C)(C)C1CCN(C(=O)C(=O)NCc2cccc3c2CN(C2CCC(=O)NC2=O)C3=O)CC1 (stereo not drawn) [Compound I-61, 2-(4-(tert-butyl)piperidin-1-yl)-N-((2-(2,6-dioxopiperidin-3-yl)-1-oxoisoindolin-4-yl)methyl)-2-oxoacetamide] | < 25
6 | CC(C)(C)C1CCN(C(=O)C(=O)NCc2ccc3c(c2)CN(C2CCC(=O)NC2=O)C3=O)CC1 (stereo not drawn) [Compound I-62, 2-(4-(tert-butyl)piperidin-1-yl)-N-((2-(2,6-dioxopiperidin-3-yl)-1-oxoisoindolin-5-yl)methyl)-2-oxoacetamide] | > 80
7 | CC(C)[C@@H](N)C(=O)OCN1C(=O)CCC(N2Cc3c(CNC(=O)C(=O)c4ccc(C5(C(F)(F)F)CC5)cc4)cccc3C2=O)C1=O (stereo partly drawn) [Compound I-64, (2,6-dioxo-3-(1-oxo-4-((2-oxo-2-(4-(1-(trifluoromethyl)cyclopropyl)-phenyl)acetamido)methyl)isoindolin-2-yl)piperidin-1-yl)methyl D-valinate] | > 80
8 | O=C1CCC(N2Cc3c(CCNC(=O)C(=O)c4ccc(C5(C(F)(F)F)CC5)cc4)cccc3C2=O)C(=O)N1 (stereo not drawn) [Compound I-65, N-(2-(2-(2,6-dioxopiperidin-3-yl)-1-oxoisoindolin-4-yl)ethyl)-2-oxo-2-(4-(1-(trifluoromethyl)cyclopropyl)phenyl)acetamide] | < 25
9 | O=C1CCC(N2Cc3c(CNC(=O)C(=O)c4ccc(C5CCNCC5)cc4)cccc3C2=O)C(=O)N1 (stereo not drawn) [Compound I-66, N-((2-(2,6-dioxopiperidin-3-yl)-1-oxoisoindolin-4-yl)methyl)-2-oxo-2-(4-(piperidin-4-yl)phenyl)acetamide] | < 25
10 | CC(C)(C)C1CCC(C(=O)C(=O)NCc2cccc3c2CN(C2CCC(=O)NC2=O)C3=O)CC1 (stereo not drawn) [Compound I-67, 2-(4-(tert-butyl)cyclohexyl)-N-((2-(2,6-dioxopiperidin-3-yl)-1-oxoisoindolin-4-yl)methyl)-2-oxoacetamide] | 25 to 50
11 | CC(C)(C)C1CCC(C(=O)C(=O)NCc2ccc3c(c2)CN(C2CCC(=O)NC2=O)C3=O)CC1 (stereo not drawn) [Compound I-68, 2-(4-(tert-butyl)cyclohexyl)-N-((2-(2,6-dioxopiperidin-3-yl)-1-oxoisoindolin-5-yl)methyl)-2-oxoacetamide] | < 25
12 | Cc1ccc(C(=O)C(=O)NCc2cccc3c2CN(C2CCC(=O)NC2=O)C3=O)cc1 (stereo not drawn) [Compound I-72, N-((2-(2,6-dioxopiperidin-3-yl)-1-oxoisoindolin-4-yl)methyl)-2-oxo-2-(p-tolyl)acetamide] | < 25
13 | O=C1CCC(N2Cc3c(CNC(=O)C(=O)c4ccc(F)c(F)c4)cccc3C2=O)C(=O)N1 (stereo not drawn) [Compound I-73, 2-(3,4-difluorophenyl)-N-((2-(2,6-dioxopiperidin-3-yl)-1-oxoisoindolin-4-yl)methyl)-2-oxoacetamide] | < 25
14 | O=C1CCC(N2Cc3c(CNC(=O)C(=O)c4ccccc4)cccc3C2=O)C(=O)N1 (stereo not drawn) [Compound I-74, N-((2-(2,6-dioxopiperidin-3-yl)-1-oxoisoindolin-4-yl)methyl)-2-oxo-2-phenylacetamide] | < 25
15 | O=C1CCC(N2Cc3c(CNC(=O)C(=O)c4ccc(C(F)(F)F)cc4)cccc3C2=O)C(=O)N1 (stereo not drawn) [Compound I-75, N-((2-(2,6-dioxopiperidin-3-yl)-1-oxoisoindolin-4-yl)methyl)-2-oxo-2-(4-(trifluoromethyl)phenyl)acetamide] | 25 to 50
16 | N#Cc1ccc(C(=O)C(=O)NCc2cccc3c2CN(C2CCC(=O)NC2=O)C3=O)cc1 (stereo not drawn) [Compound I-76, 2-(4-cyanophenyl)-N-((2-(2,6-dioxopiperidin-3-yl)-1-oxoisoindolin-4-yl)methyl)-2-oxoacetamide] | < 25
17 | O=C1CCC(N2Cc3c(CNC(=O)C(=O)c4ccc(Cl)cc4)cccc3C2=O)C(=O)N1 (stereo not drawn) [Compound I-77, 2-(4-chlorophenyl)-N-((2-(2,6-dioxopiperidin-3-yl)-1-oxoisoindolin-4-yl)methyl)-2-oxoacetamide] | < 25
18 | COc1ccc(C(=O)C(=O)NCc2cccc3c2CN(C2CCC(=O)NC2=O)C3=O)cc1 (stereo not drawn) [Compound I-78, 2-(4-methoxyphenyl)-N-((2-(2,6-dioxopiperidin-3-yl)-1-oxoisoindolin-4-yl)methyl)-2-oxoacetamide] | 25 to 50
19 | COc1cc(OC)c(C(=O)C(=O)NCc2cccc3c2CN(C2CCC(=O)NC2=O)C3=O)c(OC)c1 (stereo not drawn) [Compound I-79, 2-(2,4,6-trimethoxyphenyl)-N-((2-(2,6-dioxopiperidin-3-yl)-1-oxoisoindolin-4-yl)methyl)-2-oxoacetamide] | < 25
20 | Cc1cc(C)c(C(=O)C(=O)NCc2cccc3c2CN(C2CCC(=O)NC2=O)C3=O)c(C)c1 (stereo not drawn) [Compound I-80, 2-(2,4,6-trimethylphenyl)-N-((2-(2,6-dioxopiperidin-3-yl)-1-oxoisoindolin-4-yl)methyl)-2-oxoacetamide] | < 25
21 | O=C1CCC(N2Cc3c(CNC(=O)C(=O)c4ccc(F)cc4)cccc3C2=O)C(=O)N1 (stereo not drawn) [Compound I-81, 2-(4-fluorophenyl)-N-((2-(2,6-dioxopiperidin-3-yl)-1-oxoisoindolin-4-yl)methyl)-2-oxoacetamide] | 25 to 50
22 | O=C1CCC(N2Cc3c(CNC(=O)C(=O)c4ccccc4F)cccc3C2=O)C(=O)N1 (stereo not drawn) [Compound I-82, 2-(2-fluorophenyl)-N-((2-(2,6-dioxopiperidin-3-yl)-1-oxoisoindolin-4-yl)methyl)-2-oxoacetamide] | 25 to 50
23 | O=C1CCC(N2Cc3cc(CNC(=O)C(=O)c4ccccc4)ccc3C2=O)C(=O)N1 (stereo not drawn) [Compound I-83, N-((2-(2,6-dioxopiperidin-3-yl)-1-oxoisoindolin-5-yl)methyl)-2-oxo-2-phenylacetamide] | > 80
24 | COc1cc(OC)c(C(=O)C(=O)NCc2ccc3c(c2)CN(C2CCC(=O)NC2=O)C3=O)c(OC)c1 (stereo not drawn) [Compound I-84, N-((2-(2,6-dioxopiperidin-3-yl)-1-oxoisoindolin-5-yl)methyl)-2-oxo-2-(2,4,6-trimethoxyphenyl)acetamide] | 25 to 50

From patent US11345712B2, “Protein-targeting compounds and pharmaceutical compositions thereof, and their therapeutic applications” (BioTheryX, Inc., priority 2019, dated 2022)
